Laboratory results reported in patent publication US20070036793A1, “Methods for use of an lkb1/strad7mo25 complex” (priority 2003, published 2007).
Entries after “also recorded” stand apart in the source; their conditions may differ.

Legend:
AMPK [1] = biological target: T1, AMPK (Homo sapiens, UniProt Q13131); experiment: Activation and Thr-172 phosphorylation of endogenous AMPK in HeLa cells with or without stably expressed LKB1; type: cell-based; conditions: earlier unpublished results
T1 construct: Endogenous AMPK was immunoprecipitated from the cell extracts and assayed; endogenous in cells; host or cells: HeLa cells (control, or stably expressing wild type or kinase-dead LKB1)
T1 sequence (Q13131 whole entry): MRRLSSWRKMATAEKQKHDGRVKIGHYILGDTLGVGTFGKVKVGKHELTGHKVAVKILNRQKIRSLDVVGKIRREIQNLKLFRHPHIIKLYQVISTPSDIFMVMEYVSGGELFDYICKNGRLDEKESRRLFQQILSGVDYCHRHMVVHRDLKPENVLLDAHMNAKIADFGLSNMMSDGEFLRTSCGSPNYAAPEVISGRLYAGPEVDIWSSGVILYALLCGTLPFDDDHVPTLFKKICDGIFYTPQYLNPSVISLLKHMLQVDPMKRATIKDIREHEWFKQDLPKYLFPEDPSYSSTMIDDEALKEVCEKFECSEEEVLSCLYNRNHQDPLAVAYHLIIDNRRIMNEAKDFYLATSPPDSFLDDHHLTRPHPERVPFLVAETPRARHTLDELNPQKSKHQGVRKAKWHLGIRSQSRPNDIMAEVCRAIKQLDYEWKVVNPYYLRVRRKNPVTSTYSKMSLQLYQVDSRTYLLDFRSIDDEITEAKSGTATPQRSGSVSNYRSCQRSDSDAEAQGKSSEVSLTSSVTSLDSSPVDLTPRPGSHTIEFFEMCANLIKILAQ
T1 sequence (Q9Y478 2-270 partner limits assumed): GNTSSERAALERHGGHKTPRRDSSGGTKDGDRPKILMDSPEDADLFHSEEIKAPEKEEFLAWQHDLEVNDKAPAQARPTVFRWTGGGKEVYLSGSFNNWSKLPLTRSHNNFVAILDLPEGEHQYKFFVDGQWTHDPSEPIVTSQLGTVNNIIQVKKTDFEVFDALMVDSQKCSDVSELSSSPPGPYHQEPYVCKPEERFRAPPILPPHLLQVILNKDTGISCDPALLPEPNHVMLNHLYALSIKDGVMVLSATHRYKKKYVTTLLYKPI
T1 sequence (P54619 whole entry partner): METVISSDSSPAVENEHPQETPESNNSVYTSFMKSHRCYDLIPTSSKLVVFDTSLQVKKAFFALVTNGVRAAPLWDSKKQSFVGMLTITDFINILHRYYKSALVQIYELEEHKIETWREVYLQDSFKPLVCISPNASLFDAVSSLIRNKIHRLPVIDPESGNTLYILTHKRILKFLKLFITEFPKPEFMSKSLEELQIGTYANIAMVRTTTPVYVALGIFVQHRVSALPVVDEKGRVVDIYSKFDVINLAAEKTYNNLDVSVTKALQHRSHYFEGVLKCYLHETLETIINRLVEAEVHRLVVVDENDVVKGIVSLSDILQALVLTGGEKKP

[2] = test system: acetyl-CoA carboxylase (ACC); experiment: Phosphorylation of acetyl-CoA carboxylase at Ser-79 in HeLa cells expressing LKB1; type: cell-based, human; conditions: HeLa cells stably expressing wild type LKB1; 2 mM AICA riboside or 10 mM phenformin, 60 min
Description: FIG. 18: Restoration of the ability of AMPK to be activated by AICA riboside and phenformin in HeLa cells by expression of LKB1. Control HeLa cells (lanes 1, 2, 3), HeLa cells expressing wild type (WT) LKB1 (lanes 4, 5, 6) and kinase dead (D194A, KD) mutant LKB1 (lanes 7, 8, 9) were either left unstimulated or treated with 2 mM AICA riboside or 10 mM phenformin for 60 min and lysed. (A) Endogenous AMPK was immunoprecipitated from the cell extracts and assayed. (B) The cell lysates was immunoblotted with antibodies recognising AMPKα1 phosphorylated at Thr172 or total AMPKα1; the results were analysed using the LI-COR IR Odyssesy™ imager as described under Materials and Methods, and are expressed as a ratio of the two signals. (C) The cell lysates was analysed by Western blotting and the membranes probed with antibodies recognising ACC phosphorylated at Ser-79, or streptavidin to determine total […]. The results were analysed using the LI-COR IR imager as for (B).
To analyse phosphorylation of ACC, samples were analysed by SDS-PAGE, transferred to nitrocellulose (BioRad) and incubated in Odyssey™ Blocking buffer containing 0.2% Tween-20 for 1 h. […] The membranes were scanned in two different channels using the Odyssey™ IR imager, the results quantified using Odyssey™ software and expressed as a ratio of the signal obtained with the pACC antibody to that obtained with streptavidin. […]

AMPK [3] = experiment: AMPK activation by drugs in other cell types; type: cell-based
[4] = test system: AMPK-related kinases (NUAK2, QIK, QSK, SIK, MARK1, MARK2/3, MARK4); experiment: Activity of endogenous AMPK-related kinases immunoprecipitated from HeLa cells after phenformin; type: cell-based, human; conditions: HeLa cells (control, wild type or kinase inactive LKB1), 10 mM phenformin, 1 h
Description: FIG. 29. Activity of AMPK-related kinases In HeLa cells. […] AMPKα1 and AMPK-related kinases were immunoprecipitated from the cell lysates, and in vitro kinase activity towards the AMARA peptide was measured as described in Materials and Methods (Example 4). To confirm equal expression of the kinases in each sample, cell lysates (AMPKα1, MARK2/3 and MARK4) or immunoprecipitated proteins (NUAK2, QIK, QSK, SIK and MARK1) were subjected to SDS-PAGE and western immunoblot analysis. All AMPK-related kinases migrated with the expected molecular mass. In the case of AMPKα1, cell lysates were immunoblotted with a pThr172 antibody (P-AMPK), that recognises the phosphorylated T-loop. Results shown are average + SD of 2-4 assays and are representative of at least two independent experiments.
Cell culture, stimulation and cell lysis. […] Protein concentrations were determined by the Bradford method with bovine serum albumin as the standard (Bradford, 1976).
0.1-1 mg of Hela or MEF lysate protein was incubated at 4° C. for 1 h on a shaking platform with 5 μg of the corresponding antibody, which had been previously conjugated to 5 μl of protein G-Sepharose. The immunoprecipitates were washed twice with 1 ml of Lysis Buffer containing 0.5 M NaCl, and twice with 1 ml of Buffer A. Phosphotransferase activity towards the AMARA peptide was then measured in a total assay volume of 50 μl as described above.

SMILES	activation of AMPK (AMPK [1])	phosphorylation of downstream target ACC (Ser-79) [2]	activation of AMPK compared with metformin (AMPK [3])	activity of AMPK-related kinases [4]
NC(=O)c1ncn([C@@H]2O[C@H](CO)[C@@H](O)[C@H]2O)c1N [AICA riboside, 5-aminoimidazole-4-carboxamide (AICA) riboside]	not activated	larger effect than phenformin; also recorded: restored	–	–
[H]/N=C(/N)N/C(=N/[H])NCCc1ccccc1 [phenformin]	–	restored	more rapidly and more potently than metformin	none of the AMPK-related kinases were significantly activated
